Patent US10457665B2, “1,4-di-(4-methylthiophenyl)-3-phtaloylazetidine-2-one and the derivatives thereof” (Universite De Nantes, priority 2015, dated 2019)

Test system: liver, subcutaneous and visceral adipose tissue of obese mice
Test: Gene expression of markers (RT-PCR) in liver and adipose tissues after oral treatment with food
Assay type: in vivo, mouse
Experimental: Total messenger RNA (mRNA) extraction was carried out with Tri-Reagent (Euromedex, France) and consecutive synthesis of complementary DNA (cDNA) was carried out from 1 μg of mRNA with the Bio-Rad iScripttm Reverse Transcription super mix kit (Bio-Rad, France). Gene expression was evaluated by semi-quantitative real-time reverse transcription-polymerase chain reaction (RT-PCR). The primers used, described below, were selected using the Primer3Plus software (http://www.bioinformatics.nl/cgi-25 bin/primer3plus/primer3plus.cgi) and synthesized by MWG-Biotech. Semi-quantification of gene expression was obtained by taking into account the efficacy of each PCR and standardization with the reporter gene TATA box-binding protein (TBP).
The impact of the treatment on endocannabinoid system activity is evaluated by measuring the gene expression 1) of receptors CB1R and CB2R 2) of the endocannabinoid synthesis enzyme, N-acyl phosphatidylethanolamine phospholipase D (NAPE-PLD) and 3) of the endocannabinoid degradation enzyme, fatty acid amide hydrolase (FAAH).
Fatty acid synthase (FAS), stearoyl-CoA desaturase 1 (SCD-1) and glycerol-phosphate acyl-transferase (GPAT2) are enzymes whose expression variations reflect lipogenic activity.
Glucose-6-phosphatase (G6P) and the glucose transporters GLUT2 and GLUT4 in the liver are used herein as neoglucogenesis markers.
F4/80 is a mature macrophage marker.
Tumour necrosis factor-alpha (TNF-a) is a proinflammatory cytokine affecting the regulation of numerous biological processes such as immune functions, cell differentiation and energy metabolism.

With `CSc1ccc(C2C(N3C(=O)c4ccccc4C3=O)C(=O)N2c2ccc(SC)cc2)cc1` (stereo not drawn) [JM-00.266, trans-1,4-di-(4-methylthiophenyl)-3-N-phthaloyl-azetidine-2-one] the TNF-a expression (adipose tissue) was “trend towards the reduction”, the “expression of FAS” value (adipose tissue) was “reduction” and the “expression of CB R” value (any of the tissues tested) was “not modified”. The “expression of FAAH” value (any of the tissues tested) was “not modified”, the “expression of GPAT” value (liver) was “reduction” and the “expression of SCD-1” value (liver) was “reduction”. For the same compound, the F4/80 expression (liver and adipose tissues) was “clearly decreased”, the CB2R expression (tissues of treated animals) was “lower” and the “expression of NAPE-PLD” value (tissues tested, 28 d oral with food) was “reduction”.
